Assay results as given in PMC7618403 (Science (New York, N.Y.), 2026).
Values belong to the molecule of their own block, whether it stands above or below them.

How the values were obtained:
[1] = biological target: T1, XRCC3 complex (XRCC3-RAD51C-RAD51D-XRCC2), XRCC2 site (Homo sapiens, UniProt O43543); assay: cryo-EM structure, […] A; assay type: binding; settings: XRCC2 nucleotide site; ATP with Mg2+ and Ca2+; capped RAD51-ssDNA filament
T1 construct: heterotetramer co-expressed in baculovirus-infected insect cells, purified; caps a RAD51-ssDNA filament; with DNA repair protein XRCC3

[2] = biological target: T2, (Homo sapiens, UniProt O15315+O43502); assay: ATP hydrolysis assay; assay type: biochemical; settings: coupled RAD51B and RAD51C ATPase sites
T2 construct: gene RAD51B; heterotetramer; DNA repair protein XRCC2

[3] = biological target: T3, XRCC3 complex (XRCC3-RAD51C-RAD51D-XRCC2), XRCC3 site (Homo sapiens, UniProt O43542); assay: cryo-EM structure, […] A; assay type: binding; settings: XRCC3 active site; ATP with Mg2+ and Ca2+; capped RAD51-ssDNA filament
T3 construct: heterotetramer co-expressed in baculovirus-infected insect cells, purified; in the structure it caps a RAD51-ssDNA filament; DNA repair protein XRCC2

[4] = biological target: T4, XRCC3 complex (XRCC3-RAD51C-RAD51D-XRCC2), RAD51D site (Homo sapiens, UniProt O75771); assay: cryo-EM structure, […] A; assay type: binding; settings: RAD51D nucleotide site; ATP with Mg2+ and Ca2+; capped RAD51-ssDNA filament
T4 construct: heterotetramer co-expressed in baculovirus-infected insect cells, purified; caps a RAD51-ssDNA filament; with DNA repair protein XRCC3; DNA repair protein XRCC2

[5] = biological target: T5, XRCC3 complex (XRCC3-RAD51C-RAD51D-XRCC2), XRCC3 site (Homo sapiens, UniProt O43542, E143A); assay: ATP hydrolysis assay; assay type: biochemical; settings: catalytic glutamate mutant
T5 construct: heterotetramer co-expressed in baculovirus-infected insect cells, purified; DNA repair protein XRCC2

[6] = biological target: T6, RAD51B complex (RAD51B-RAD51C-RAD51D-XRCC2; BCDX2) (Homo sapiens, UniProt O15315+O43502, O43502:E161A); assay: ATP hydrolysis assay; assay type: biochemical; settings: catalytic glutamate mutant
T6 construct: heterotetramer; DNA repair protein XRCC2

[7] = biological target: T3, XRCC3 complex (XRCC3-RAD51C-RAD51D-XRCC2), XRCC3 site; assay: ATP hydrolysis assay; assay type: biochemical; settings: catalytic glutamate mutant
Target sequence in this assay (O43502 whole entry E161A partner, one chain of several): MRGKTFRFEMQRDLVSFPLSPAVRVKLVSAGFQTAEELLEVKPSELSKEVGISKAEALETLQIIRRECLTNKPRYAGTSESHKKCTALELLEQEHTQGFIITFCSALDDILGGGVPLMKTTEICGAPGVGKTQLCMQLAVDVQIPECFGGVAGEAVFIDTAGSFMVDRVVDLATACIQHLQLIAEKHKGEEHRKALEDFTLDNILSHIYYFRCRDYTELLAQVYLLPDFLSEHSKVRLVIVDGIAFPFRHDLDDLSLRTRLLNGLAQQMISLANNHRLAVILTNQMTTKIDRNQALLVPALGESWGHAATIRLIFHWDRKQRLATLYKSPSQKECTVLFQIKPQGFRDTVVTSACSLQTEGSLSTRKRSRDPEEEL

[8] = biological target: T7, RAD51 (filament on ssDNA capped by XRCC3 complex) (Homo sapiens, UniProt Q06609); assay: cryo-EM structure, […] A; assay type: binding; settings: RAD51 active sites, ATP with Mg2+ and Ca2+
T7 construct: with DNA repair protein XRCC3; DNA repair protein XRCC2

RAD51 [9] = biological target: T8, RAD51 (human, UniProt Q06609 1-339); assay: MST
T8 chain: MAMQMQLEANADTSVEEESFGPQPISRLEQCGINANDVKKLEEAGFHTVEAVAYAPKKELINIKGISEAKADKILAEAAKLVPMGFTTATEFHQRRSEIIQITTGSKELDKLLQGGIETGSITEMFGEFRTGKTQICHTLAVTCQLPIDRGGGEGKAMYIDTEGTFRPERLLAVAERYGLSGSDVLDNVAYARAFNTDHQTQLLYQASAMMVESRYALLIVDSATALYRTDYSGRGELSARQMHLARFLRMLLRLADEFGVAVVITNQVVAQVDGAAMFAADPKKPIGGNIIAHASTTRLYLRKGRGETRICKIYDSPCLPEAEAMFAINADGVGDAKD

RAD51 [10] = biological target: T8, RAD51; assay: MST; 1 mM ATP and CaCl2

T5 sequence (O43542 whole entry E143A, one chain of several): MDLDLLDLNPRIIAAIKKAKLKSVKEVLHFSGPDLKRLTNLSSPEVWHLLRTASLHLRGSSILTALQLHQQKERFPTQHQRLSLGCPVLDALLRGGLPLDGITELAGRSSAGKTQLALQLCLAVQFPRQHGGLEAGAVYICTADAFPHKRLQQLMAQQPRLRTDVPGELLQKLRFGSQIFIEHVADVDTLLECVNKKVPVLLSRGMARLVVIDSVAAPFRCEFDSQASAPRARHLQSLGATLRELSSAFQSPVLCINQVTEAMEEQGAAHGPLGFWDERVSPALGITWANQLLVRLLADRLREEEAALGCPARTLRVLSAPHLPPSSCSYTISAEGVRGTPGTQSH
T6 sequence (O15315 whole entry, one chain of several): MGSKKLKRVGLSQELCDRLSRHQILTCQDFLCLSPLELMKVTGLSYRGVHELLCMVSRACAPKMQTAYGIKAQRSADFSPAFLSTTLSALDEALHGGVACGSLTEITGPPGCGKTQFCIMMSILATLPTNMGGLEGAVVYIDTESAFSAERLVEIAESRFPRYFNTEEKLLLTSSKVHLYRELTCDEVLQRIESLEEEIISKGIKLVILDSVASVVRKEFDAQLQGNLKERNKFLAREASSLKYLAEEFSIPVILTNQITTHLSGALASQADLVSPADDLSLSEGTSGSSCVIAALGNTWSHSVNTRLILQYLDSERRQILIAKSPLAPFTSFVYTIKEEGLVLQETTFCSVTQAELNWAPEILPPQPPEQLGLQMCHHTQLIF
T6 sequence (O43502 whole entry E161A, one chain of several): as the sequence (O43502 whole entry E161A partner, one chain of several) above
T2 sequence (O15315 whole entry, one chain of several): as the sequence (O15315 whole entry, one chain of several) above

- cryo-EM structure, 2.7 A [1]: RAD51D and XRCC2 were both bound to ATP
- cryo-EM structure, 2.7 A [4]: RAD51D and XRCC2 were both bound to ATP
Molecule: Nc1ncnc2c1ncn2[C@@H]1O[C@H](COP(=O)(O)OP(=O)(O)OP(=O)(O)O)[C@@H](O)[C@H]1O [ATP]
- ATP hydrolysis assay [2]: XRCC3 complex displayed minimal ATPase activity relative to the RAD51B complex
- cryo-EM structure, 2.7 A [3]: XRCC3 and RAD51 protomers were also bound to ATP
- ATP hydrolysis assay [5]: residual activity was eliminated by an XRCC3 catalytic glutamate mutant (XRCC3^E143A)
- ATP hydrolysis assay [6]: the same mutation abolishing the ATPase activity in the RAD51B complex
- ATP hydrolysis assay [7]: mutation of the catalytic glutamate in RAD51C (RAD51C^E161A) had no effect on ATPase activity
- cryo-EM structure, 2.7 A [8]: XRCC3 and RAD51 protomers were also bound to ATP

- Kd (RAD51 [9]): 57 nM
B1: XRCC3-RAD51C-RAD51D-XRCC2 complex (complex)
chain 1: MDLDLLDLNPRIIAAIKKAKLKSVKEVLHFSGPDLKRLTNLSSPEVWHLLRTASLHLRGSSILTALQLHQQKERFPTQHQRLSLGCPVLDALLRGGLPLDGITELAGRSSAGKTQLALQLCLAVQFPRQHGGLEAGAVYICTEDAFPHKRLQQLMAQQPRLRTDVPGELLQKLRFGSQIFIEHVADVDTLLECVNKKVPVLLSRGMARLVVIDSVAAPFRCEFDSQASAPRARHLQSLGATLRELSSAFQSPVLCINQVTEAMEEQGAAHGPLGFWDERVSPALGITWANQLLVRLLADRLREEEAALGCPARTLRVLSAPHLPPSSCSYTISAEGVRGTPGTQSH
chain 2: MRGKTFRFEMQRDLVSFPLSPAVRVKLVSAGFQTAEELLEVKPSELSKEVGISKAEALETLQIIRRECLTNKPRYAGTSESHKKCTALELLEQEHTQGFIITFCSALDDILGGGVPLMKTTEICGAPGVGKTQLCMQLAVDVQIPECFGGVAGEAVFIDTEGSFMVDRVVDLATACIQHLQLIAEKHKGEEHRKALEDFTLDNILSHIYYFRCRDYTELLAQVYLLPDFLSEHSKVRLVIVDGIAFPFRHDLDDLSLRTRLLNGLAQQMISLANNHRLAVILTNQMTTKIDRNQALLVPALGESWGHAATIRLIFHWDRKQRLATLYKSPSQKECTVLFQIKPQGFRDTVVTSACSLQTEGSLSTRKRSRDPEEEL
chain 3: MGVLRVGLCPGLTEEMIQLLRSHRIKTVVDLVSADLEEVAQKCGLSYKALVALRRVLLAQFSAFPVNGADLYEELKTSTAILSTGIGSLDKLLDAGLYTGEVTEIVGGPGSGKTQVCLCMAANVAHGLQQNVLYVDSNGGLTASRLLQLLQAKTQDEEEQAEALRRIQVVHAFDIFQMLDVLQELRGTVAQQVTGSSGTVKVVVVDSVTAVVSPLLGGQQREGLALMMQLARELKTLARDLGMAVVVTNHITRDRDSGRLKPALGRSWSFVPSTRILLDTIEGAGASGGRRMACLAKSSRQPTGFQEMVDIGTWGTSEQSATLQGDQT
chain 4: MCSAFHRAESGTELLARLEGRSSLKEIEPNLFADEDSPVHGDILEFHGPEGTGKTEMLYHLTARCILPKSEGGLEVEVLFIDTDYHFDMLRLVTILEHRLSQSSEEIIKYCLGRFFLVYCSSSTHLLLTLYSLESMFCSHPSLCLLILDSLSAFYWIDRVNGGESVNLQESTLRKCSQCLEKLVNDYRLVLFATTQTIMQKASSSSEEPSHASRRLCDVDIDYRPYLCKAWQQLVKHRMFFSKQDDSQSSNQFSLVSRCLKSNSLKKHFFIIGESGVEFC

- Kd (RAD51 [10]): 93 nM
B2: RAD51C-XRCC3 heterodimer (complex)
chain 1: MRGKTFRFEMQRDLVSFPLSPAVRVKLVSAGFQTAEELLEVKPSELSKEVGISKAEALETLQIIRRECLTNKPRYAGTSESHKKCTALELLEQEHTQGFIITFCSALDDILGGGVPLMKTTEICGAPGVGKTQLCMQLAVDVQIPECFGGVAGEAVFIDTEGSFMVDRVVDLATACIQHLQLIAEKHKGEEHRKALEDFTLDNILSHIYYFRCRDYTELLAQVYLLPDFLSEHSKVRLVIVDGIAFPFRHDLDDLSLRTRLLNGLAQQMISLANNHRLAVILTNQMTTKIDRNQALLVPALGESWGHAATIRLIFHWDRKQRLATLYKSPSQKECTVLFQIKPQGFRDTVVTSACSLQTEGSLSTRKRSRDPEEEL
chain 2: MDLDLLDLNPRIIAAIKKAKLKSVKEVLHFSGPDLKRLTNLSSPEVWHLLRTASLHLRGSSILTALQLHQQKERFPTQHQRLSLGCPVLDALLRGGLPLDGITELAGRSSAGKTQLALQLCLAVQFPRQHGGLEAGAVYICTEDAFPHKRLQQLMAQQPRLRTDVPGELLQKLRFGSQIFIEHVADVDTLLECVNKKVPVLLSRGMARLVVIDSVAAPFRCEFDSQASAPRARHLQSLGATLRELSSAFQSPVLCINQVTEAMEEQGAAHGPLGFWDERVSPALGITWANQLLVRLLADRLREEEAALGCPARTLRVLSAPHLPPSSCSYTISAEGVRGTPGTQSH
